Each structure is given as a SMILES string. Values after ≈ are worked out from the molar mass of the structure shown. A value given as a limit tells only on which side of the number the result lay.

Holding throughout (format): functional
The test system of experiment [1] is Staphylococcus aureus. The experiment in a line: Antibacterial activity against Staphylococcus aureus MTCC 96 after 24 hr by agar disk diffusion test. (Agar diffusion results depend on both activity and mobility in agar.)
The subject of experiment [2] is Shigella flexneri. The experiment in a line: Antibacterial activity against Shigella flexneri after 24 hr.
Experiment [3] has as its system Staphylococcus aureus. The experiment is described as follows: Antibacterial activity against Staphylococcus aureus MTCC 96 after 24 hr. The settings on record: MTCC 96, 24 h.
The test system of experiment [4] is Salmonella typhi. The experiment is described as follows: Antibacterial activity against Salmonella enterica subsp. enterica serovar Typhi MTCC 733 after 24 hr by agar disk diffusion test.
Experiment [5] has as its system Pseudomonas aeruginosa. The experiment in a line: Antibacterial activity against Pseudomonas aeruginosa MTCC 741.
Experiment [6] deals with Bacillus cereus. The experiment in a line: Antibacterial activity against Bacillus cereus MTCC 619 after 24 hr. The settings on record: MTCC 619, 24 h.
Experiment [7] deals with Pseudomonas aeruginosa. The experiment is described as follows: Antibacterial activity against Pseudomonas aeruginosa MTCC 741 after 24 hr by agar disk diffusion test.
Experiment [8] has as its system Escherichia coli. The experiment is described as follows: Antibacterial activity against Escherichia coli MTCC 739 after 24 hr. The settings on record: MTCC 739, 24 h.
For experiment [9], the system named is Candida albicans. The experiment is described as follows: Antifungal activity against Candida albicans MTCC 183 after 48 hr. The settings on record: MTCC 183, 48 h.
Experiment [10] has as its system Klebsiella pneumoniae. The experiment in a line: Antibacterial activity against Klebsiella pneumoniae MTCC 109 after 24 hr. The settings on record: MTCC 109, 24 h.
The test system of experiment [11] is Candida albicans. The experiment in a line: Antifungal activity against Candida albicans MTCC 183 after 24 hr by agar disk diffusion test.
In experiment [12] the test system is Bacillus cereus. The experiment in a line: Antibacterial activity against Bacillus cereus MTCC 619 after 24 hr by agar disk diffusion test.
The subject of experiment [13] is Salmonella typhi. The experiment in a line: Antibacterial activity against Salmonella enterica subsp. enterica serovar Typhi MTCC 733 after 24 hr. The settings on record: MTCC 733, 24 h.
Experiment [14] relates to Escherichia coli. The experiment is described as follows: Antibacterial activity against Escherichia coli MTCC 739 after 24 hr by agar disk diffusion test.
For experiment [15], the system named is Proteus vulgaris. The experiment in a line: Antibacterial activity against Proteus vulgaris MTCC 1771 after 24 hr by agar disk diffusion test.
In experiment [16] the test system is Aspergillus niger. The experiment in a line: Antifungal activity against Aspergillus niger MTCC 282 after 48 hr. The settings on record: MTCC 282, 48 h.
For experiment [17], the system named is Klebsiella pneumoniae. The experiment in a line: Antibacterial activity against Klebsiella pneumoniae MTCC 109 after 24 hr by agar disk diffusion test.
The test system of experiment [18] is Aspergillus niger. The experiment in a line: Antifungal activity against Aspergillus niger MTCC 282 after 24 hr by agar disk diffusion test.
In experiment [19] the test system is Proteus vulgaris. The experiment is described as follows: Antibacterial activity against Proteus vulgaris MTCC 1771 after 24 hr. The settings on record: MTCC 1771, 24 h.
Experiment [20] relates to Shigella flexneri. The experiment in a line: Antibacterial activity against Shigella flexneri after 24 hr by agar disk diffusion test.

What is called MIC is the least concentration at which growth counts as inhibited. As to `O=c1oc2ccccc2cc1-c1nnc(Sc2nc(Oc3cccc4cccnc34)nc(N3CCN(c4ccccc4)CC3)n2)o1`, the “inhibition zone (IZ)” value in experiment [1] is on record as <10 mm; in experiment [4] it was <10 mm; in experiment [7] it was 13 mm; in experiment [11] it was <10 mm; in experiment [12] it was 12 mm; in experiment [14] it was <10 mm. For the same compound, the “inhibition zone (IZ)” value is on record as 15 mm in experiment [15], 11 mm in experiment [17], <10 mm in [18] and <10 mm in [20]. Moreover, the MIC in experiment [2], in experiment [3], in [5], in experiment [6], in experiment [8] and in [9] was 100 µg/mL (≈ 159 µM) throughout. Besides, the MIC in [10], in [13], in [16] and in [19] was 100 µg/mL (≈ 159 µM) throughout.
As for `O=c1oc2ccccc2cc1-c1nnc(Sc2nc(Oc3cccc4cccnc34)nc(N3CCOCC3)n2)o1`, the “inhibition zone (IZ)” value is 14 mm in experiment [1]; 16 mm in [4]; 16 mm in experiment [7]; <10 mm in experiment [11]; 15 mm in [12]; <10 mm in [14]. Further, the “inhibition zone (IZ)” value is <10 mm in experiment [15], 22 mm in experiment [17], 12 mm in experiment [18] and 11 mm in experiment [20]. Also, the MIC in experiment [2], in [3], in [5], in experiment [6], in experiment [8] and in experiment [9] was 100 µg/mL (≈ 181 µM) throughout. In addition, the MIC came to 25 µg/mL (≈ 45.2 µM) in experiment [10], 100 µg/mL (≈ 181 µM) in experiment [13], 100 µg/mL (≈ 181 µM) in [16] and 100 µg/mL (≈ 181 µM) in experiment [19].
Turning to `COc1ccc(N2CCN(c3nc(Oc4cccc5cccnc45)nc(Sc4nnc(-c5cc6ccccc6oc5=O)o4)n3)CC2)cc1`, the “inhibition zone (IZ)” value came to 22 mm in [1]; 24 mm in [4]; 23 mm in experiment [7]; 22 mm in [11]; 23 mm in [12]; 17 mm in experiment [14]. In addition, the “inhibition zone (IZ)” value amounted to 18 mm in experiment [15], 19 mm in experiment [17], 24 mm in experiment [18] and 22 mm in experiment [20]. The MIC in [2] was 50 µg/mL (≈ 75.9 µM); in experiment [3] it was 25 µg/mL (≈ 38 µM); in experiment [5], 12.5 µg/mL (≈ 19 µM); in experiment [6], 12.5 µg/mL (≈ 19 µM); in experiment [8], 100 µg/mL (≈ 152 µM); in [9], 50 µg/mL (≈ 75.9 µM). Moreover, the MIC in experiment [10] is 100 µg/mL (≈ 152 µM); in experiment [13], 12.5 µg/mL (≈ 19 µM); in experiment [16] it was 25 µg/mL (≈ 38 µM); in experiment [19] it was 100 µg/mL (≈ 152 µM).
`O=c1oc2ccccc2cc1-c1nnc(Sc2nc(Oc3cccc4cccnc34)nc(N3CCN(c4cccc(Cl)c4)CC3)n2)o1`: the “inhibition zone (IZ)” value in experiment [1] is 17 mm; in experiment [4], 17 mm; in experiment [7] it was 14 mm; in experiment [11], 20 mm; in experiment [12] it was 17 mm; in experiment [14], 25 mm. The “inhibition zone (IZ)” value in experiment [15] is 19 mm; in experiment [17] it was 15 mm; in experiment [18] it was 20 mm; in experiment [20], 19 mm. In addition, the MIC was found to be 100 µg/mL (≈ 151 µM) in experiment [2]; 100 µg/mL (≈ 151 µM) in experiment [3]; 100 µg/mL (≈ 151 µM) in experiment [5]; 100 µg/mL (≈ 151 µM) in experiment [6]; 25 µg/mL (≈ 37.7 µM) in [8]; 50 µg/mL (≈ 75.4 µM) in [9]. The minimum inhibitory concentration (MIC) in experiment [10], in [13], in experiment [16] and in experiment [19] was 100 µg/mL (≈ 151 µM) each time.
As to `O=c1oc2ccccc2cc1-c1nnc(Sc2nc(Oc3cccc4cccnc34)nc(N3CCCCC3)n2)o1`, the “inhibition zone (IZ)” value in experiment [1] was 11 mm; in experiment [4], 14 mm; in experiment [7] it was 15 mm; in experiment [11], <10 mm; in [12], <10 mm; in experiment [14], <10 mm. For the same compound, the “inhibition zone (IZ)” value in [15] is listed as <10 mm; in [17] it was 20 mm; in experiment [18] it was <10 mm; in [20] it was <10 mm. Besides, the minimal inhibitory concentration (MIC) in [2], in experiment [3], in [5], in [6], in experiment [8] and in experiment [9] was 100 µg/mL (≈ 181 µM) each time. Also, the MIC in experiment [10] is 50 µg/mL (≈ 90.6 µM); in experiment [13], 100 µg/mL (≈ 181 µM); in experiment [16] it was 100 µg/mL (≈ 181 µM); in experiment [19], 100 µg/mL (≈ 181 µM).
Turning to `O=c1oc2ccccc2cc1-c1nnc(Sc2nc(Oc3cccc4cccnc34)nc(N3CCN(c4cccc(Cl)c4Cl)CC3)n2)o1`, the “inhibition zone (IZ)” value in [1] is 21 mm; in experiment [4], 19 mm; in experiment [7], 20 mm; in experiment [11], 21 mm; in [12] it was 22 mm; in experiment [14] it was 24 mm. In addition, the “inhibition zone (IZ)” value in [15] turned out to be 17 mm; in experiment [17] it was 21 mm; in [18], 23 mm; in [20], 21 mm. Besides, the MIC came out at 100 µg/mL (≈ 143 µM) in experiment [2]; 50 µg/mL (≈ 71.7 µM) in experiment [3]; 50 µg/mL (≈ 71.7 µM) in experiment [5]; 25 µg/mL (≈ 35.8 µM) in experiment [6]; 25 µg/mL (≈ 35.8 µM) in experiment [8]; 50 µg/mL (≈ 71.7 µM) in experiment [9]. The MIC in experiment [10] stood at 25 µg/mL (≈ 35.8 µM); in experiment [13], 100 µg/mL (≈ 143 µM); in [16], 25 µg/mL (≈ 35.8 µM); in experiment [19], 100 µg/mL (≈ 143 µM).
`CC1CC(C)CN(c2nc(Oc3cccc4cccnc34)nc(Sc3nnc(-c4cc5ccccc5oc4=O)o3)n2)C1` (stereo not given): the “inhibition zone (IZ)” value in experiment [1] is reported as 22 mm; in [4], 23 mm; in [7], 22 mm; in [11], 16 mm; in [12], 21 mm; in experiment [14], 20 mm. In addition, the “inhibition zone (IZ)” value in experiment [15] is on record as 19 mm; in [17], 16 mm; in experiment [18], 23 mm; in experiment [20], 24 mm. For the same compound, the minimum inhibitory concentration (MIC) came to 25 µg/mL (≈ 43.1 µM) in [2]; 25 µg/mL (≈ 43.1 µM) in [3]; 12.5 µg/mL (≈ 21.6 µM) in [5]; 50 µg/mL (≈ 86.3 µM) in experiment [6]; 50 µg/mL (≈ 86.3 µM) in experiment [8]; 100 µg/mL (≈ 173 µM) in experiment [9]. The MIC is 100 µg/mL (≈ 173 µM) in experiment [10], 12.5 µg/mL (≈ 21.6 µM) in experiment [13], 25 µg/mL (≈ 43.1 µM) in experiment [16] and 100 µg/mL (≈ 173 µM) in [19].
Take `O=c1oc2ccccc2cc1-c1nnc(Sc2nc(Oc3cccc4cccnc34)nc(N3CCN(C(c4ccccc4)c4ccc(Cl)cc4)CC3)n2)o1` (stereo not given): the “inhibition zone (IZ)” value in [1] was found to be 20 mm; in [4], 19 mm; in experiment [7], 16 mm; in experiment [11], 22 mm; in experiment [12] it was 21 mm; in experiment [14] it was 25 mm. In addition, the “inhibition zone (IZ)” value in experiment [15] stood at 20 mm; in [17] it was 19 mm; in experiment [18], 22 mm; in experiment [20], 16 mm. Also, the MIC in experiment [2] is 100 µg/mL (≈ 133 µM); in experiment [3], 50 µg/mL (≈ 66.4 µM); in [5], 100 µg/mL (≈ 133 µM); in experiment [6], 50 µg/mL (≈ 66.4 µM); in experiment [8], 25 µg/mL (≈ 33.2 µM); in [9], 50 µg/mL (≈ 66.4 µM). In addition, the MIC was found to be 100 µg/mL (≈ 133 µM) in experiment [10], 100 µg/mL (≈ 133 µM) in experiment [13], 50 µg/mL (≈ 66.4 µM) in [16] and 100 µg/mL (≈ 133 µM) in experiment [19].
For the compound `CN1CCN(c2nc(Oc3cccc4cccnc34)nc(Sc3nnc(-c4cc5ccccc5oc4=O)o3)n2)CC1`, the “inhibition zone (IZ)” value in experiment [1] is 13 mm; in experiment [4] it was 16 mm; in experiment [7], 19 mm; in [11], 11 mm; in experiment [12], <10 mm; in experiment [14] it was 12 mm. The “inhibition zone (IZ)” value in experiment [15] is 11 mm; in experiment [17], 12 mm; in experiment [18] it was <10 mm; in experiment [20], 18 mm. Besides, the minimal inhibitory concentration (MIC) in experiment [2], in experiment [3], in experiment [5], in [6], in experiment [8] and in experiment [9] was 100 µg/mL (≈ 176 µM) in each case. The MIC in [10], in experiment [13], in [16] and in experiment [19] was 100 µg/mL (≈ 176 µM) each time.

The values are drawn from ChEMBL document CHEMBL3045723, “Synthesis of novel 3-(5-sulfanyl-1,3,4-oxadiazol-2-yl)-2H-chromen-2-one condensed s-triazinyl piperazines and piperidines as antimicrobial agents” (2012).
